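These data come from cells grown in 96-well plates and exposed to compound for 48 hours at five concentrations. GI50 marks 50% less growth. The concentration for full growth arrest is given as TGI.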
Experiments:
Test in all cases: NCI-60 cell line screen, 48 h
[1] = tested on: SW-620 colon
[2] = tested on: A549 NSCLC
[3] = tested on: OVCAR-5 ovarian
[4] = tested on: TK-10 renal
[5] = tested on: OVCAR-8 ovarian
[6] = tested on: NCI-H460 lung
[7] = tested on: HOP-92 NSCLC
[8] = tested on: SNB-75 CNS
[9] = tested on: M14 melanoma
[10] = tested on: CCRF-CEM leukemia
[11] = tested on: MDA-MB-468 breast
[12] = tested on: HCT-116 colon
[13] = tested on: PC-3 prostate
[14] = tested on: CAKI-1 renal
[15] = tested on: NCI-H23 lung
[16] = tested on: OVCAR-4 ovarian
[17] = tested on: LOX IMVI melanoma
[18] = tested on: 786-0 renal
[19] = tested on: SK-MEL-5 melanoma
[20] = tested on: MOLT-4 leukemia
[21] = tested on: HS 578T breast
[22] = tested on: DU-145 prostate
[23] = tested on: MCF7 breast
[24] = tested on: OVCAR-3 ovarian
[25] = tested on: UO-31 renal
[26] = tested on: SF-295 CNS
[27] = tested on: UACC-257 melanoma
[28] = tested on: U251 CNS
[29] = tested on: K-562 leukemia
[30] = tested on: RPMI-8226 leukemia
[31] = tested on: SR leukemia
[32] = tested on: ACHN renal
[33] = tested on: SK-OV-3 ovarian
[34] = tested on: EKVX NSCLC
[35] = tested on: SK-MEL-28 melanoma
[36] = tested on: KM12 colon
[37] = tested on: HOP-62 NSCLC
[38] = tested on: IGROV1 ovarian
[39] = tested on: MALME-3M melanoma
[40] = tested on: HCC-2998 colon
[41] = tested on: SF-268 CNS
[42] = tested on: SNB-19 CNS
[43] = tested on: BT-549 breast
[44] = tested on: UACC-62 melanoma
[45] = tested on: RXF 393 renal
[46] = tested on: HL-60(TB) leukemia
[47] = tested on: COLO 205 colon
[48] = tested on: HT29 colon
[49] = tested on: NCI-H226 lung
[50] = tested on: NCI/ADR-RES ovarian
[51] = tested on: A498 renal
[52] = tested on: HCT-15 colon
[53] = tested on: NCI-H522 lung
[54] = tested on: MDA-MB-435
[55] = tested on: SF-539 CNS
[56] = tested on: SN12C renal
[57] = tested on: SK-MEL-2 melanoma
[58] = tested on: T-47D breast
[59] = tested on: MDA-MB-231 breast

Brc1ccc(N/N=C/c2c[nH]c3ccccc23)nc1
GI50 [1]: 76 µM | TGI [1]: > 100 µM | GI50 [2]: 12.6 µM | TGI [2]: > 100 µM | GI50 [3]: > 100 µM | TGI [3]: > 100 µM | GI50 [4]: 48 µM | TGI [4]: > 100 µM | GI50 [5]: 26.3 µM | TGI [5]: > 100 µM | GI50 [6]: 14.1 µM | TGI [6]: > 100 µM | GI50 [7]: 6.66 µM | TGI [7]: 57.6 µM | GI50 [8]: 0.385 µM | TGI [8]: 97.9 µM | GI50 [9]: 78.5 µM | TGI [9]: > 100 µM | GI50 [10]: 0.839 µM | TGI [10]: > 100 µM | GI50 [11]: 1.88 µM | TGI [11]: 6.1 µM | GI50 [12]: 13.2 µM | TGI [12]: > 100 µM | GI50 [13]: 4.83 µM | TGI [13]: > 100 µM | GI50 [14]: 4.35 µM | TGI [14]: > 100 µM | GI50 [15]: > 100 µM | TGI [15]: > 100 µM | GI50 [16]: 77.9 µM | TGI [16]: > 100 µM | GI50 [17]: 6.47 µM | TGI [17]: > 100 µM | GI50 [18]: 13.2 µM | TGI [18]: > 100 µM | GI50 [19]: 25.6 µM | TGI [19]: > 100 µM | GI50 [20]: 2.67 µM | TGI [20]: > 100 µM | GI50 [21]: 7.45 µM | TGI [21]: > 100 µM | GI50 [22]: 20.5 µM | TGI [22]: > 100 µM | GI50 [23]: 2.43 µM | TGI [23]: > 100 µM | GI50 [24]: 8.63 µM | TGI [24]: > 100 µM | GI50 [25]: 1.46 µM | TGI [25]: > 100 µM | GI50 [26]: 19.1 µM | TGI [26]: > 100 µM | GI50 [27]: > 100 µM | TGI [27]: > 100 µM | GI50 [28]: 21 µM | TGI [28]: > 100 µM | GI50 [29]: 4.05 µM | TGI [29]: > 100 µM | GI50 [30]: 3.07 µM | TGI [30]: > 100 µM | GI50 [31]: 2.28 µM | TGI [31]: > 100 µM | GI50 [32]: 11.6 µM | TGI [32]: > 100 µM | GI50 [33]: 56.2 µM | TGI [33]: > 100 µM | GI50 [34]: 4.44 µM | TGI [34]: > 100 µM | GI50 [35]: > 100 µM | TGI [35]: > 100 µM | GI50 [36]: 3.68 µM | TGI [36]: > 100 µM | GI50 [37]: 11 µM | TGI [37]: 59.3 µM | GI50 [38]: 1.63 µM | TGI [38]: > 100 µM | GI50 [39]: > 100 µM | TGI [39]: > 100 µM | GI50 [40]: 9.35 µM | TGI [40]: > 100 µM | GI50 [41]: 4.15 µM | TGI [41]: > 100 µM | GI50 [42]: 11.4 µM | TGI [42]: 46.4 µM | GI50 [43]: 0.17 µM | TGI [43]: > 100 µM | GI50 [44]: 37.3 µM | TGI [44]: > 100 µM | GI50 [45]: 2.5 µM | TGI [45]: 80.9 µM | GI50 [46]: 2.81 µM | TGI [46]: > 100 µM | GI50 [47]: > 100 µM | TGI [47]: > 100 µM | GI50 [48]: 29.4 µM | TGI [48]: > 100 µM | GI50 [49]: 3.78 µM | TGI [49]: > 100 µM | GI50 [50]: 7.03 µM | TGI [50]: > 100 µM | GI50 [51]: 35.2 µM | TGI [51]: > 100 µM | GI50 [52]: 9.19 µM | TGI [52]: > 100 µM | GI50 [53]: 2.53 µM | TGI [53]: 28 µM | GI50 [54]: 79.4 µM | TGI [54]: > 100 µM | GI50 [55]: 4.7 µM | TGI [55]: > 100 µM | GI50 [56]: 2.28 µM | TGI [56]: > 100 µM | GI50 [57]: > 100 µM | TGI [57]: > 100 µM | GI50 [58]: 3.97 µM | TGI [58]: > 100 µM | GI50 [59]: 2.2 µM | TGI [59]: 8.47 µM
